Data from patent publication US12404285B2, “KRAS G12D proteolysis targeting chimeras” (PAQ Therapeutics Inc., priority 2022, dated 2025).

Molecular target: T1, KRAS (G12D)-HiBit in AsPc-1-KRAS (G12D)-HiBit-KI cell (Homo sapiens, UniProt P01116, G12D)
T1 construct: host or cells: AsPc-1-KRAS (G12D)-HiBit-KI cells (knock-in line)
Assay: G12D HiBit assay
Format: cell-based
Conditions: 24 hours compound treatment, absolute DC50, read-out: Average PHA DC50
Experimental: Day 1. Prepared the culture medium for AsPc-1-KRAS (G12D)-HiBit-KI cell (Pharmaron) using RPMI 1640 medium (Gibco, 11875093) with 10% FBS (Gibco, 10099141C) and 1% Penicillin-Streptomycin Liquid (Solarbio, P1400). Cultivated cells in T-75 flasks in a cell culture incubator (Thermo, Model: 371) at 37° C., 5% CO2. Allowed cells to reach approximately 80% confluence before splitting. Rinsed cultivated cells in T-75 flasks with 5 mL PBS (Solarbio, P1020-500). Aspirated off PBS, added 1.5 mL trypsin (Invitrogen, #25300), and incubated at 37° C. for approximately 5 minutes or until the cells detached. Inactivated trypsin by adding excessive serum containing medium. Harvested the cells from flask into cell culture medium and counted the cell number. Seeded AsPc-1-KRAS (G12D)-HiBit-KI cell into 384-well plate (Corning, 3570) (cell density: 5×10^3 cells/well in 50 μL medium) in RPMI 1640 medium and incubated overnight at 37° C. and 5% CO2.
Day 2. Test compounds were dissolved at 0.3 mM in DMSO (Solarbio, D8371) as stock solution. Transferred 45 μL of stock solution to a 384-well plate (Labcyte, 001-14555). Performed 3-fold, 10-points dilution via transferring 15 μL compound into 30 μL DMSO by using TECAN liquid handler (TECAN, Freedom EVO200). The compound plates were spin at room temperature at 1,000 RPM for 1 minute (Eppendorf, 5810R). Transferred 50 nL of diluted compounds from compound source plate into the cell plate by Echo (Labcyte, 550) to achieve final concentrations of 300 nM, 100 nM, 33.3 nM, 11.1 nM, 3.7 nM, 1.23 nM, 0.41 nM, 0.14 nM, 0.046 nM and 0.015 nM, then mixed the cell plate on a plate shaker (Yoning, WZ-4) for 15 seconds at 900 rpm. After compound treatment for 24 hours, removed the plate from incubators and equilibrated at room temperature for 15 minutes. Prepared the HiBit reagent (Promega, N3040) by mixing 10 mL of Nano-Glo®-HiBiT Lytic Buffer with 200 μL of Nano-Glo®-HiBiT Lytic Substrate and 100 μL of LgBiT Protein. Added 20 μL of HiBit reagent into each well of the cell plate and spun the plates at room temperature at 1,000 RPM for 1 minute. Then shook the plates at 600 RPM at room temperature for 20 minutes using a plate shaker (Yoning, WZ-4), and read the luminescence by EnVision (PerkinElmer, 2105-0020).
The inhibition activity was calculated using the following formula: HiBit-G12D level (%)=100%×[Luminescence(Sample)/Mean of Luminescence (HC)] where HC (high control) is obtained from cells treated with 0.1% DMSO only.
Absolute DC50 was calculated by fitting the curve using GraphPad Prism v8.0.2 (analyis 263): Y=Bottom+(100−Bottom)/(1+10^(Log AbsoluteIC50−X)*HillSlope+log((100−Bottom)/(50−Bottom)−1)))
The data are reported in Table 3, wherein “+++”=DC50 less than 100 nM, “++”=DC50 greater than or equal to 100 nM and less than 300 nM; “+”=DC50 greater than or equal to 300 nM.

T1 sequence (P01116 1-188 isoform P01116-2 G12D): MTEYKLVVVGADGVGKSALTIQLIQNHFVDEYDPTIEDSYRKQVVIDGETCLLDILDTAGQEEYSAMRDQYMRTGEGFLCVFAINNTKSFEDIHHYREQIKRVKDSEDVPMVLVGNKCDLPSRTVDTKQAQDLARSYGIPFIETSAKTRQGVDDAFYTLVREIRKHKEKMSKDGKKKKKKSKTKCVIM

| Compound | DC50 |
| --- | --- |
| C#Cc1c(F)ccc2cccc(-c3ncc4c(N5CC6CCC(C5)N6)nc(OC[C@@]56CCCN5[C@H](COC(=O)NCCCC(=O)N5CCC(c7ccc8c(c7)n(C)c(=O)n8C7CCC(=O)NC7=O)CC5)CC6)nc4c3F)c12 (stereo partly shown) [Compound 45] | ≥ 300 nM |
| C#Cc1c(F)ccc2cccc(-c3ncc4c(N5CC6CCC(C5)N6)nc(OC[C@@]56CCCN5[C@H](COC(=O)N5CCC7(CC5)CN(CC#Cc5cccc8c5n(C)c(=O)n8C5CCC(=O)NC5=O)CCO7)CC6)nc4c3F)c12 (stereo partly shown) [Compound 46] | ≥ 300 nM |
| C#Cc1c(F)ccc2cccc(-c3ncc4c(N5CC6CCC(C5)N6)nc(OC[C@@]56CCCN5[C@H](COC(=O)N5CCC(OCCC#Cc7ccc8c(c7)n(C)c(=O)n8C7CCC(=O)NC7=O)CC5)CC6)nc4c3F)c12 (stereo partly shown) [Compound 50] | < 100 nM |
| C#Cc1c(F)ccc2cccc(-c3ncc4c(N5CC6CCC(C5)N6)nc(OC[C@@]56CCCN5[C@H](COC(=O)N5CCC(OCCCCCCc7cccc8c7n(C)c(=O)n8C7CCC(=O)NC7=O)CC5)CC6)nc4c3F)c12 (stereo partly drawn) [Compound 58, [(3S,8S)-8-[[4-(3,8-Diazabicyclo[3.2.1]octan-3-yl)-7-(8-ethynyl-7-fluoro-1-naphthyl)-8-fluoro-pyrido[4,3-d]pyrimidin-2-yl]oxymethyl]-1,2,3,5,6,7-hexahydropyrrolizin-3-yl]methyl 4-[6-[1-(2,6-dioxo-3-piperidyl)-3-methyl-2-oxo-benzimidazol-4-yl]hexoxy]piperidine-1-carboxylate] | < 100 nM |
| C#Cc1c(F)ccc2cccc(-c3ncc4c(N5CC6CCC(C5)N6)nc(OC[C@@]56CCCN5[C@H](COC(=O)N5CCC(OCCCCCCCc7cccc8c7n(C)c(=O)n8C7CCC(=O)NC7=O)CC5)CC6)nc4c3F)c12 (stereo partly shown) [Compound 59] | < 100 nM |
| C#Cc1c(F)ccc2cccc(-c3ncc4c(N5CC6CCC(C5)N6)nc(OC[C@@]56CCCN5[C@H](COC(=O)N5CC7(CC(CCc8cccc9c8n(C)c(=O)n9C8CCC(=O)NC8=O)C7)C5)CC6)nc4c3F)c12 (stereo partly drawn) [Compound 61, [(3S,8S)-8-[[4-(3,8-diazabicyclo[3.2.1]octan-3-yl)-7-(8-ethynyl-7-fluoro-1-naphthyl)-8-fluoro-pyrido[4,3-d]pyrimidin-2-yl]oxymethyl]-1,2,3,5,6,7-hexahydropyrrolizin-3-yl]methyl 6-[2-[1-(2,6-dioxo-3-piperidyl)-3-methyl-2-oxo-benzimidazol-4-yl]ethyl]-2-azaspiro[3.3]heptane-2-carboxylate] | 100 to 300 nM |

Further lines, results first:

| DC50 | Compound |
| --- | --- |
| < 100 nM | C#Cc1c(F)ccc2cccc(-c3ncc4c(N5CC6CCC(C5)N6)nc(OC[C@@]56CCCN5[C@H](COC(=O)N5CCC(CC7CCN(Cc8ccc9c(c8)n(C)c(=O)n9C8CCC(=O)NC8=O)CC7)CC5)CC6)nc4c3F)c12 (stereo partly shown) [Compound 47] |
| ≥ 300 nM | C#Cc1c(F)ccc2cccc(-c3ncc4c(N5CC6CCC(C5)N6)nc(OC[C@@]56CCCN5[C@H](COC(=O)N5CCC(CC7CCN(c8cccc9c8n(C)c(=O)n9C8CCC(=O)NC8=O)CC7)CC5)CC6)nc4c3F)c12 (stereo partly shown) [Compound 48] |
| ≥ 300 nM | C#Cc1c(F)ccc2cccc(-c3ncc4c(N5CC6CCC(C5)N6)nc(OC[C@@]56CCCN5[C@H](COC(=O)N5CCC(CCC7CCN(Cc8cccc9c8n(C)c(=O)n9C8CCC(=O)NC8=O)CC7)CC5)CC6)nc4c3F)c12 (stereo partly shown) [Compound 49] |
| < 100 nM | C#Cc1c(F)ccc2cccc(-c3ncc4c(N5CC6CCC(C5)N6)nc(OC[C@@]56CCCN5[C@H](COC(=O)N5CCC(C7CCN(Cc8cccc9c8n(C)c(=O)n9C8CCC(=O)NC8=O)CC7)CC5)CC6)nc4c3F)c12 (stereo partly shown) [Compound 51] |
| < 100 nM | C#Cc1c(F)ccc2cccc(-c3ncc4c(N5CC6CCC(C5)N6)nc(OC[C@@]56CCCN5[C@H](COC(=O)N5CCC(OC7CCN(Cc8ccc9c(c8)n(C)c(=O)n9C8CCC(=O)NC8=O)CC7)CC5)CC6)nc4c3F)c12 (stereo partly shown) [Compound 52] |
| < 100 nM | C#Cc1c(F)ccc2cccc(-c3ncc4c(N5CC6CCC(C5)N6)nc(OC[C@@]56CCCN5[C@H](COC(=O)N5CCC(N7CCN(Cc8cccc9c8n(C)c(=O)n9C8CCC(=O)NC8=O)CC7)CC5)CC6)nc4c3F)c12 (stereo partly drawn) [Compound 53, [(3S,8S)-8-[[4-(3,8-diazabicyclo [3.2.1]octan-3-yl)-7-(8-ethynyl-7-fluoro-1-naphthyl)-8-fluoro-pyrido[4,3-d]pyrimidin-2-yl]oxymethyl]-1,2,3,5,6,7-hexahydropyrrolizin-3-yl]methyl4-[4-[[1-(2,6-dioxo-3-piperidyl)-3-methyl-2-oxo-benzimidazol-4-yl]methyl]piperazin-1-yl]piperidine-1-carboxylate] |
| < 100 nM | C#Cc1c(F)ccc2cccc(-c3ncc4c(N5CC6CCC(C5)N6)nc(OC[C@@]56CCCN5[C@H](COC(=O)N5CCC(OC7CN(Cc8cccc9c8n(C)c(=O)n9C8CCC(=O)NC8=O)C7)CC5)CC6)nc4c3F)c12 (stereo partly drawn) [Compound 54, [(3S,8S)-8-[[4-(3,8-Diazabicyclo[3.2.1]octan-3-yl)-7-(8-ethynyl-7-fluoro-1-naphthyl)-8-fluoro-pyrido[4,3-d]pyrimidin-2-yl]oxymethyl]-1,2,3,5,6,7-hexahydropyrrolizin-3-yl]methyl 4-[1-[[1-(2,6-dioxo-3-piperidyl)-3-methyl-2-oxo-benzimidazol-4-yl]methyl]azetidin-3-yl]oxypiperidine-1-carboxylate] |
| < 100 nM | C#Cc1c(F)ccc2cccc(-c3ncc4c(N5CC6CCC(C5)N6)nc(OC[C@@]56CCCN5[C@H](COC(=O)N5CCC(C7CCN(Cc8ccc9c(c8)n(C)c(=O)n9C8CCC(=O)NC8=O)CC7)CC5)CC6)nc4c3F)c12 (stereo partly drawn) [Compound 55, [(3S,8S)-8-[[4-(3,8-Diazabicyclo[3.2.1]octan-3-yl)-7-(8-ethynyl-7-fluoro-1-naphthyl)-8-fluoro-pyrido[4,3-d]pyrimidin-2-yl]oxymethyl]-1,2,3,5,6,7-hexahydropyrrolizin-3-yl]methyl 4-[1-[[1-(2,6-dioxo-3-piperidyl)-3-methyl-2-oxo-benzimidazol-5-yl]methyl]-4-piperidyl]piperidine-1-carboxylate] |
| < 100 nM | C#Cc1c(F)ccc2cccc(-c3ncc4c(N5CC6CCC(C5)N6)nc(OC[C@@]56CCCN5[C@H](COC(=O)N5CCC(N7CCN(Cc8ccc9c(c8)n(C)c(=O)n9C8CCC(=O)NC8=O)CC7)CC5)CC6)nc4c3F)c12 (stereo partly drawn) [Compound 56, [(3S,8S)-8-[[4-(3,8-Diazabicyclo[3.2.1]octan-3-yl)-7-(8-ethynyl-7-fluoro-1-naphthyl)-8-fluoro-pyrido[4,3-d]pyrimidin-2-yl]oxymethyl]-1,2,3,5,6,7-hexahydropyrrolizin-3-yl]methyl 4-[4-[[1-(2,6-dioxo-3-piperidyl)-3-methyl-2-oxo-benzimidazol-5-yl]methyl]piperazin-1-yl]piperidine-1-carboxylate] |
| 100 to 300 nM | C#Cc1c(F)ccc2cccc(-c3ncc4c(N5CC6CCC(C5)N6)nc(OC[C@@]56CCCN5[C@H](COC(=O)N5CCC7(CCC(CCc8cccc9c8n(C)c(=O)n9C8CCC(=O)NC8=O)CC7)CC5)CC6)nc4c3F)c12 (stereo partly drawn) [Compound 60, [(3S,8S)-8-[[4-(3,8-Diazabicyclo[3.2.1]octan-3-yl)-7-(8-ethynyl-7-fluoro-1-naphthyl)-8-fluoro-pyrido[4,3-d]pyrimidin-2-yl]oxymethyl]-1,2,3,5,6,7-hexahydropyrrolizin-3-yl]methyl 9-[2-[1-(2,6-dioxo-3-piperidyl)-3-methyl-2-oxo-benzimidazol-4-yl]ethyl]-3-azaspiro[5.5]undecane-3-carboxylate] |
